In publication PMC10195864, “Stereochemical engineering yields a multifunctional peptide macrocycle inhibitor of Akt2 by fine-tuning macrocycle-cell membrane interactions” (Communications Chemistry, 2023):
“And” between values parts separate entries of the source, which are not always exact repeats. Identical values can stand only once. “Also recorded” adds a separate entry of the source. Like-named read-outs stand apart in the source and are kept apart here. Positions of bridges follow the written chain, without caps; N, C: chain ends. Non-standard residues stand in square brackets, D forms with d. Residues, ends and D or L forms follow the SMILES beside them. R8 = C=CCCCCCC[C@@](C)(N)C(=O)O; S5 = C=CCCC[C@](C)(N)C(=O)O

How the values were obtained:
[1] = target: T1, pAkt2 (active His6-tagged Akt2) (Homo sapiens, UniProt P31751); test: ELISA for peptides against full-length pAkt2 protein (serial dilution); assay type: binding; settings: biotinylated ligand immobilized, His6-pAkt2 titrated
T1 construct: purchased Abcam
Method: A total of 2 μM solution of each biotinylated peptide was prepared in binding buffer. A total of 100 μL of each solution was added to each well of a High-Capacity Streptavidin 96 well plate (Thermo Scientific), and the plate was shaken for 2 h at room temperature. The wells were blocked with 5% milk in 25 mM tris chloride, pH = 7.4, 150 mM NaCl and 0.05% Tween 20 (TBST). The wells were washed with binding buffer five times. Serial dilutions of active His6-tagged Akt2 were made in the binding buffer. A total of 100 μL of each solution was added per well, and the plate was shaken overnight at 4 °C. The wells were washed three times with the binding buffer, then treated for an hour with a 1:1000 dilution of anti 6X His mouse monoclonal [HIS.H8] antibody. A 1:10,000 dilution of goat anti-mouse antibody-Horse Radish Peroxide conjugate in binding buffer was added to the wells for an hour. The plate was washed three times with TBST and once with TBS (25 mM tris chloride, pH = 7.5, 150 mM NaCl), treated with TMB substrate (KPL), and quenched with sulfuric acid, and the absorbance at 450 nm wavelength measured. From the absorbance values at 450 nm wavelength (A450) for each protein concentration, the corresponding blank A450 (no ligand immobilized, same concentration of protein added) was subtracted. They were then fitted by non-linear regression in GraphPad Prism 6.

recombinant Akt3 = tested on: recombinant Akt3; set-up: method as in PMID 25329478; settings: recombinant Akt; cited from earlier work
pAkt2 = target: T2, pAkt2 (Homo sapiens, UniProt P31751); test: Protein selectivity ELISA, 25 nM protein; assay type: binding; settings: for binding to pAkt2: single-point ELISA, 25 nM protein, A450
T2 construct: purchased Abcam
Method: A total of 1.25 μM biotinylated ligand was prepared by diluting the 1 mM stock in binding buffer (0.1% BSA, 25 mM trisCl, pH = 7.5, 150 mM NaCl, 0.05% Tween20). The prepared ligand solution or 0.125% DMSO (buffer control) in binding buffer was immobilized on a High-Capacity Streptavidin 96 well plate (Thermo Scientific). After washing the excess ligand, the plate was blocked overnight with 1% BSA in TBST. […] After three washes with the binding buffer, the plate was treated for an hour with a 1:1000 dilution of anti-His6 mouse monoclonal antibody in the binding buffer. A 1:10,000 dilution of goat anti-mouse antibody conjugated to Horse Radish Peroxide in binding buffer was added to the wells. The plates were washed four times, five minutes each, with TBST and once with TBS. The color was developed by adding TMB substrate to each well. The reaction was quenched with 0.5 M H2SO4. The absorbance values at 450 nm (A450) were measured on a 96-well plate reader. The Net A450 was obtained by subtracting the absorbance value for the blank control (no immobilized ligand) from each triplicate value obtained for the ligand–epitope interaction.

[2] = target: T1, pAkt2 (active His6-tagged Akt2); set-up: method as in PMID 26377818; settings: read-out: EC50 against pAkt2; cited from earlier work
[3] = target: T3, target phosphopeptide epitope, Akt2 amino acids 450–481 (pS474) (Homo sapiens, UniProt P31751); test: Epitope selectivity ELISA, 2.5 µM His6-tagged epitope; assay type: binding; settings: 1.25 µM ligand immobilized, 2.5 µM epitope
T3 construct: made in house; host or cells: chemical solid-phase peptide synthesis
T3 sequence (P31751 450-481 limits assumed): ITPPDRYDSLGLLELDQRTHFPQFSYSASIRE
Method: A total of 1.25 μM biotinylated ligand was prepared by diluting the 1 mM stock in binding buffer (0.1% BSA, 25 mM trisCl, pH = 7.5, 150 mM NaCl, 0.05% Tween20). The prepared ligand solution or 0.125% DMSO (buffer control) in binding buffer was immobilized on a High-Capacity Streptavidin 96 well plate (Thermo Scientific). After washing the excess ligand, the plate was blocked overnight with 1% BSA in TBST. 2.5 μM solutions of the His6-tagged target phosphopeptide epitope, Akt2 amino acids 450–481, or His6-tagged scrambled peptide was added to each of the wells and incubated overnight. After three washes with the binding buffer, the plate was treated for an hour with a 1:1000 dilution of anti-His6 mouse monoclonal antibody in the binding buffer. A 1:10,000 dilution of goat anti-mouse antibody conjugated to Horse Radish Peroxide in binding buffer was added to the wells. The plates were washed four times, five minutes each, with TBST and once with TBS. […] The absorbance values at 450 nm (A450) were measured on a 96-well plate reader. The Net A450 was obtained by subtracting the absorbance value for the blank control (no immobilized ligand) from each triplicate value obtained for the ligand–epitope interaction. […]
-FPQF(pS)YSAS-IRE and the scrambled epitope His6–Peg2-ITPPDRYDSLGLLELQRTH-YFFASQPSS-IRE overnight. […] The absorbance at 450 nm is measured to quantitate the binding. […]

[4] = target: macrocycle C2, Cy(YYTYTG-rcm); test: ELISA; biotinylated peptide (2 μM) immobilised on a streptavidin plate; serial dilutions of active His6-tagged Akt2 in binding buffer (0.1% BSA, 25 mM trisCl pH 7.5, 150 mM NaCl, 0.05% Tween20), overnight at 4 °C; detected with anti-His6 antibody; A450 fitted by non-linear regression

T1 sequence (P31751 whole entry): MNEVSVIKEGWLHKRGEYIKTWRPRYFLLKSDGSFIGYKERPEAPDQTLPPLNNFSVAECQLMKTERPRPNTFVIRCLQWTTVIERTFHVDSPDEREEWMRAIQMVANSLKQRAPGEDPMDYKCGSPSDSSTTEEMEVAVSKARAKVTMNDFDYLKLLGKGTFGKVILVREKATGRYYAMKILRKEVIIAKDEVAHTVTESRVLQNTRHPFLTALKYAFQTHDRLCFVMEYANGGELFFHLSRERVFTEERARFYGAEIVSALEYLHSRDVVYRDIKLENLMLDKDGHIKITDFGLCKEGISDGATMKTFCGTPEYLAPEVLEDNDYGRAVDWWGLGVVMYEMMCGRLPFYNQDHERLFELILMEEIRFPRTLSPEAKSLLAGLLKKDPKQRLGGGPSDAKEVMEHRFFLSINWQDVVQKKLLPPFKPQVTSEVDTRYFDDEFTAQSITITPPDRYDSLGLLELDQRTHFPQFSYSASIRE
T2 sequence (P31751 whole entry): as above

Row | binding to pAkt2 (pAkt2) | Compound | also measured
1 |  | C[C@@H](O)[C@@H]1NC(=O)[C@H](Cc2ccc(O)cc2)NC(=O)[C@H]([C@@H](C)O)NC(=O)[C@H](Cc2ccc(O)cc2)NC(=O)[C@H](Cc2ccc(O)cc2)NC(=O)[C@](C)(N)CCCCCCC=CCCC[C@@](C)(C(N)=O)NC(=O)CNC1=O [C2, Cy(YYTYTG-rcm)] (H-[R8]YYTYTG[S5]-NH2; staple 1-8; N-terminus and C-terminus assumed) | EC50 [1]: 44 nM and 42 nM
2 |  | NC1(c2ccc(-c3nc4ccn5c(=O)[nH]nc5c4cc3-c3ccccc3)cc2)CCC1 [MK-2206] | inhibition of Akt3 relative to Akt1 and Akt2 (recombinant Akt3): five-fold less
3 | higher binding than C2 | Cy(4fF-4fF-TYTG-rcm) | 
4 | higher signal than C2 | Cy(4fF-YTYTG-rcm) | 
5 | higher signal than C2 | Cy(-Y4fF-TYTG-rcm) | 
6 | decreases binding | Cy(YYT-4fF-TG-rcm) | 
7 | binds to the target pAkt2 protein | Cy(YYTYT-Tz4) [C1] | EC50 [2]: 120 nM; selectivity for pAkt2 over other pAkt isoforms (pAkt2; 25 nM His6-pAkt1, pAkt2, pAkt3): selective for pAkt2 over the other two isoforms; binding to target phosphorylated chemical epitope [3]: better binding affinity for target chemical; also recorded: binds significantly better than the linear non-cyclized; also recorded: is a better binder than the latter
8 | does not | Cy(YYTYTG-Tz4) | 
9 | show no binding | Cy(YYTY’T’Grcm) | 
10 | show no binding | Cy(Y’YTY’TGrcm) | 
11 |  | full-length active His6-tagged Akt2, phosphorylated at Ser474 (pAkt2) (from UniProt P31751 1-481) (enzyme) | EC50 [4]: 44 nM
